In patent US20260308109A1 (priority 2022, published 2026):
Where two headings read alike, the source gives them in different places.

What was measured:
5-HT2A [1] = biological target: T1, 5-HT2A (Homo sapiens, UniProt P28223); test: cell-based; type: cell-based; parameters: expressed in transfected cells; host or cells: HEK293; Emax: dose or concentration left out as unconfirmed
5-HT2B [2] = biological target: T2, 5-HT2B (Homo sapiens, UniProt P41595); test: cell-based; type: cell-based; parameters: expressed in transfected cells; host or cells: HEK293; Emax: dose or concentration left out as unconfirmed
T2 sequence (P41595 whole entry): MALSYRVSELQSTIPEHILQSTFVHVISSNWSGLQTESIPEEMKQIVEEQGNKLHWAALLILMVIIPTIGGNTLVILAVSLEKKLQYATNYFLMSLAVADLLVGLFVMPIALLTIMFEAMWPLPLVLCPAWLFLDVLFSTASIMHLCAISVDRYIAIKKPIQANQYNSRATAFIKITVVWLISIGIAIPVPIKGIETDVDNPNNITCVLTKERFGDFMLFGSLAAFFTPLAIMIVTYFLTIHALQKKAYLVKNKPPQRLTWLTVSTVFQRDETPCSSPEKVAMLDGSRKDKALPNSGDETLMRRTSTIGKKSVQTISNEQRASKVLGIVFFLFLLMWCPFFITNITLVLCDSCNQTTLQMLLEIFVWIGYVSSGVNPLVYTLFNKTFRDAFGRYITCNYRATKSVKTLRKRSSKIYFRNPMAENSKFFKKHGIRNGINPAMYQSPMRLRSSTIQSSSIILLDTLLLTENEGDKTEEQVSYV

5-HT2C [3] = biological target: T3, 5-HT2C (Homo sapiens, UniProt P28335); test: cell-based; parameters: expressed in transfected cells; host or cells: HEK293; Emax: dose or concentration left out as unconfirmed
T3 sequence (P28335 33-458): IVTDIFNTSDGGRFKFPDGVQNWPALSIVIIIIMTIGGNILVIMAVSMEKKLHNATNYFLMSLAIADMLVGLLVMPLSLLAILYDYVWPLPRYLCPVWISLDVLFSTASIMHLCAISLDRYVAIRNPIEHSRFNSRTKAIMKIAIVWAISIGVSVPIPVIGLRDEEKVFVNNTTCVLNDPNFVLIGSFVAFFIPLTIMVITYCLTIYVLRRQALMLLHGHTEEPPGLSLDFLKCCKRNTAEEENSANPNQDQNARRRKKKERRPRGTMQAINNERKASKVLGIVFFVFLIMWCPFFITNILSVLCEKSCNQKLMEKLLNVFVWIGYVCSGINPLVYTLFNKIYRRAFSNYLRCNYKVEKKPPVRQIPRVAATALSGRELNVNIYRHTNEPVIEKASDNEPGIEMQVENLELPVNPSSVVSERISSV

5-HT2A [4] = biological target: T1, 5-HT2A; test: biochemical; type: binding; parameters: expressed in transfected cells; host or cells: HEK293 (membranes)
5-HT2B [5] = biological target: T2, 5-HT2B; test: In vitro receptor binding ([3H]-LSD), 5-HT2B; parameters: expressed in transfected cells; host or cells: HEK293 (membranes); conditions: for Binding ([3H]-LSD) % Inh: 5-HT2B, HEK293 membrane, radioligand 3H-LSD; for affinity at 5-HT2B: in words
5-HT2C [6] = biological target: T3, 5-HT2C; test: In vitro receptor binding ([3H]-LSD), 5-HT2C; parameters: expressed in transfected cells; host or cells: HEK293 (membranes); conditions: for Binding ([3H]-LSD) % Inh: 5-HT2C, HEK293 membrane, radioligand 3H-LSD; for affinity at 5-HT2C: in words; for affinity selectivity for 5-HT2C over 5-HT2A: ratio of Ki
[7] = test system: TNF-α induced inflammation; conditions: Yu et al. 2008; cited from earlier work
5-HT2A receptor = conditions: Flanagan et al. 2020; cited from earlier work

T1 sequence (P28223 whole entry): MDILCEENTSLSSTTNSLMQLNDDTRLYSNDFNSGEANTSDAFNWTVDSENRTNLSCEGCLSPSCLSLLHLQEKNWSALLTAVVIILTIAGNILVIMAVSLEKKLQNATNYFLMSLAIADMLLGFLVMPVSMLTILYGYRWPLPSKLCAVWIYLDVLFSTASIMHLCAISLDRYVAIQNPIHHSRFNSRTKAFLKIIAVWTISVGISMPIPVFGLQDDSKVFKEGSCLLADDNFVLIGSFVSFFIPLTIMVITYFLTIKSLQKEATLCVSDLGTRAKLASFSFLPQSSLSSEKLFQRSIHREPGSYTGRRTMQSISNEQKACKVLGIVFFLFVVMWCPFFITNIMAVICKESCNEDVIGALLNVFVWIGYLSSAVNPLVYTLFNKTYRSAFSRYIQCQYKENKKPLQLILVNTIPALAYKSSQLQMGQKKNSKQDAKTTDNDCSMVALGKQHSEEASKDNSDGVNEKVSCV

SMILES | Bottom (5-HT2A [1]) | HillSlope (5-HT2A [1]) | functional selectivity for 5-HT2A over 5-HT2C (5-HT2A [1]) | EC50 (5-HT2A [1]; EC50) [nM] | Emax (5-HT2A [1]; HEK293, read-out: IP-One % MAX) [%] | EC50 (5-HT2A [1]; IP-One EC50) [nM] | Emax (5-HT2A [1]; read-out: Top) [%] | Bottom (5-HT2B [2]) | HillSlope (5-HT2B [2]) | functional activity at 5-HT2B (5-HT2B [2]) | EC50 (5-HT2B [2]; EC50) [nM] | Emax (5-HT2B [2]; HEK293, read-out: IP-One % MAX) [%] | EC50 (5-HT2B [2]; IP-One EC50) [nM] | Emax (5-HT2B [2]; read-out: Top) [%] | Bottom (5-HT2C [3]) | HillSlope (5-HT2C [3]) | EC50 (5-HT2C [3]; EC50) [nM] | Emax (5-HT2C [3]; HEK293, read-out: IP-One % MAX) [%] | EC50 (5-HT2C [3]; IP-One EC50) [nM] | Emax (5-HT2C [3]; read-out: Top) [%] | other results
COc1cc(I)c(OC)c2c1C(CN)C2 (stereo not drawn) [Compound 2, (3-iodo-2,5-dimethoxybicyclo[4.2.0]octa-1,3,5-trien-7-yl)methanamine] | 5.304 % of control | 1.338 | approximately 4 fold | 10.1 | 127 | 10 | 124 | 3.780 % of control | 1.531 | minimal functional activity | 89.1 | 49 | > 300 | 56.2 | 3.427 % of control | 1.279 | 58 | 122 | 41 | 136 | Binding ([3H]-LSD) % Inh (5-HT2A [4]): 2A: 17 nM (96%); Ki (5-HT2A [4]): 17 nM; affinity at 5-HT2A (5-HT2A [4]): low nanomolar affinity; affinity selectivity for 5-HT2A over 5-HT2B (5-HT2A [4]): approximately 1.6 fold; Ki (5-HT2B [5]): 28 nM; Binding ([3H]-LSD) % Inh (5-HT2B [5]): 77%; affinity at 5-HT2B (5-HT2B [5]): low nanomolar affinity; Ki (5-HT2C [6]): 3 nM; Binding ([3H]-LSD) % Inh (5-HT2C [6]): 96%; affinity at 5-HT2C (5-HT2C [6]): low nanomolar affinity; affinity selectivity for 5-HT2C over 5-HT2A (5-HT2C [6]): approximately 6 fold
COc1cc(Br)c(OC)c2c1[C@H](CN)C2 [Compound 2C-BCB] |  |  |  |  |  |  |  |  |  |  |  |  |  |  |  |  |  |  |  |  | effect on TNF-α induced inflammation [7]: same effect, albeit slightly less potent
COc1ccc(OC)c(CCN)c1 [Compound 2C-H, 2,5-dimethoxyphenethylamine] |  |  |  |  |  |  |  |  |  |  |  |  |  |  |  |  |  |  |  |  | anti-inflammatory pharmacophore (5-HT2A receptor): primary pharmacophore for anti-inflammatory phenethylamine 5-HT2A receptor agonists
CCc1cc(OC)c2c(c1OC)CC2CN (stereo not drawn) [Compound 4, (3-ethyl-2,5-dimethoxybicyclo[4.2.0]octa-1,3,5-trien-7-yl)methanamine] | −0.4425 % of control | 1.033 | approximately 2.75 fold | 3.77 | 114 | 4 | 108 | −0.2984 % of control | 1.088 | significant functional activity | 27.4 | 70 | 70 | 72.8 | 1.236 % of control | 1.410 | 10.8 | 104 | 11 | 102 | functional selectivity for 5-HT2A over 5-HT2B (5-HT2A [1]): approximately 17.5 fold; Binding ([3H]-LSD) % Inh (5-HT2A [4]): 2A: 26 nM (90%); Ki (5-HT2A [4]): 26 nM; affinity at 5-HT2A (5-HT2A [4]): low nanomolar affinity; affinity selectivity for 5-HT2A over 5-HT2B (5-HT2A [4]): approximately 1.6 fold; Ki (5-HT2B [5]): 43 nM; Binding ([3H]-LSD) % Inh (5-HT2B [5]): 73%; affinity at 5-HT2B (5-HT2B [5]): low nanomolar affinity; Ki (5-HT2C [6]): 4 nM; Binding ([3H]-LSD) % Inh (5-HT2C [6]): 89%; affinity at 5-HT2C (5-HT2C [6]): low nanomolar affinity; affinity selectivity for 5-HT2C over 5-HT2A (5-HT2C [6]): approximately 6.5 fold
COc1cc(CC(C)C)c(OC)c2c1C(CN)C2 (stereo not drawn) [Compound 8, (3-isobutyl-2,5-dimethoxybicyclo[4.2.0]octa-1,3,5-trien-7-yl)methanamine] | 2.988 % of control | 1.426 | approximately 4.5 fold | 2.4 | 113 | 2 | 120 | −0.5387 % of control | 0.5893 | moderate functional activity | 261000 | 51 | 297 | 51.2 | 2.175 % of control | 1.285 | 8.73 | 117 | 9 | 120 | functional selectivity for 5-HT2A over 5-HT2B (5-HT2A [1]): approximately 148.5 fold; Binding ([3H]-LSD) % Inh (5-HT2A [4]): 2A: 133 nM (65%); Ki (5-HT2A [4]): 133 nM; Ki (5-HT2B [5]): > 95 nM; Binding ([3H]-LSD) % Inh (5-HT2B [5]): 29%; Ki (5-HT2C [6]): 4 nM; Binding ([3H]-LSD) % Inh (5-HT2C [6]): 93%; affinity at 5-HT2C (5-HT2C [6]): low nanomolar affinity; affinity selectivity for 5-HT2C over 5-HT2A (5-HT2C [6]): approximately 33 fold
CC1CC(C)N1C(=O)[C@@H]1C=C2c3cccc4[nH]cc(c34)C[C@H]2N(C)C1 (stereo partly drawn) [LA-SS-Az, lysergic acid 2,4-dimethylazetidide] |  |  |  |  |  |  |  |  |  |  |  |  |  |  |  |  |  |  |  |  | effect on TNF-α induced inflammation [7]: same effect, albeit slightly less potent
CCN(CC)C(=O)[C@@H]1C=C2c3cccc4[nH]cc(c34)C[C@H]2N(C)C1 [LSD, lysergic acid diethylamide] |  |  |  |  |  |  |  |  |  |  |  |  |  |  |  |  |  |  |  |  | effect on TNF-α induced inflammation [7]: same effect, albeit slightly less potent
